Laboratory results: paper PMC6052345, “Functional Analysis of the Chemosensory Protein MsepCSP8 From the Oriental Armyworm Mythimna separata” (Frontiers in Physiology, 2018)
Like-named read-outs stand apart in the source and are kept apart here.

Biological target: MsepCSP8 (Mythimna separata, UniProt A0A1V1WC03)
Assay: Fluorescence competitive binding assay with 1-NPN as fluorescent probe
Conditions: for IC50: displacement of 1-NPN; for Ki: calculated from IC50; for binding affinity to MsepCSP8 in words: discussion of Table 1, pH not stated; for Kd: dissociation constant, saturation and Scatchard plot
Protocol: The expressed protein was obtained in soluble form in the supernatant, and purification was accomplished using a Ni affinity chromatography column (GE Healthcare, Uppsala, Sweden). Bound protein was eluted by digestion with recombinant bovine enterokinase at 26°C for 15 h to remove the His-tag. Expression and purification were verified by 15% sodium dodecyl sulfate-polyacrylamide gel electrophoresis (SDS-PAGE), and protein concentration was measured as described by [Cao et al. (2017)]. Dialysis of purified protein was carried out in 30 mM Tris-HCl buffer [Tris(hydroxymethyl)aminomethane] at pH 7.4 and pH 5.0 before fluorescence binding assays, and protein was stored at -80°C until use.
Fluorescence competitive binding assays were performed to determine the binding affinity of MsepCSP8 for 56 ligands using N-phenyl-1-naphthylamine (1-NPN) as a fluorescent probe. Stock solutions of ligands were prepared in spectrophotometric-grade methanol. […] Mixtures of 1-NPN and protein were excited at 337 nm wavelength, and emission spectra were recorded from 360 to 600 nm using a fluorescence spectrophotometer (RF-5301PC Shimadzu, Kyoto, Japan). Binding of selected ligands with MsepCSP8 (1:1 protein:ligand stoichiometry) was evaluated using 1-NPN as a fluorescent probe, with the final concentration of the product ranging from 0 to 20 μM. […] Three independent measurements were made for all experiments. The binding affinity (Ki) of MsepCSP8 for all tested ligands was calculated based on IC50 values as follows:
Ki=IC50/(1 + [1−NPN]/K1–NPN)
where [1-NPN] is the free concentration of 1-NPN, and K1-NPN is the dissociation constant of the complex of MsepCSP8 and 1-NPN.

MsepCSP8, sequence (A0A1V1WC03 entry or part of it): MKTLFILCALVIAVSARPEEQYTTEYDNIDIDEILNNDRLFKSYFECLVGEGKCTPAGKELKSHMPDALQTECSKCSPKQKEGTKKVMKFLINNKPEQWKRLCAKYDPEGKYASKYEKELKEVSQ

Row | SMILES | IC50 (IC50, pH 5.0) [µM] | IC50 (IC50, pH 7.4) [µM] | Ki (Ki, pH 5.0) [µM] | Ki (Ki, pH 7.4) [µM] | binding affinity to MsepCSP8 in words | Ki (pH 5.0, read-out: Ki) [µM] | IC50 (pH 5.0, read-out: IC50) [µM] | Ki (pH 7.4, read-out: Ki) [µM] | IC50 (pH 7.4, read-out: IC50) [µM] | Kd (pH 5.0) [µM] | Kd (pH 7.4) [µM]
1 | C=CC(C)(O)CCC=C(C)CCC=C(C)C (mixture of isomers) [Nerolidol] | 15.4 | 15 | 11.5 | 10.5 |  |  |  |  |  |  | 
2 | CC1=CCC2C(C1)C2(C)C (single isomer, unassigned; (+)) [(+)-3-Carene] |  |  |  |  | high binding affinities | 13.2 | 17.7 | 9.42 | 13.4 |  | 
3 | CC1(C)CCC[C@@]2(C)[C@@H]3CC4C([C@@H]31)C42C (single isomer, unassigned; (+)) [(+)-Longicyclene] |  |  |  |  |  | 295 | 395 | 28.2 | 40.1 |  | 
4 | C=C(C)C1CCC2(C)OC2C1 (single isomer, unassigned; (-)) [(–)-Limonene oxide] |  |  |  |  |  | 35 | 46.9 | 12.3 | 17.5 |  | 
5 | c1ccc(Nc2cccc3ccccc23)cc1 [1-NPN, N-phenyl-1-naphthylamine, reference compound] |  |  |  |  |  |  |  |  |  | 2.93 | 2.41
6 | C=CC(O)CCCCC (stereo not drawn) [1-Octen-3-ol] | 13.2 | 8.25 | 9.88 | 5.79 | bound strongly |  |  |  |  |  | 
7 | CCCCCC(C)O (stereo not drawn) [2-Heptanol] | 25.6 | 23.8 | 19.1 | 16.7 |  |  |  |  |  |  | 
8 | CCC(C)C=O (stereo not drawn) [2-Methylbutyraldehyde] | 21.4 | 13.8 | 16 | 9.66 | high affinities |  |  |  |  |  | 
9 | CCCCCCCCCC(C)=O [2-Undecanone] | 22.3 | 35.5 | 16.6 | 24.9 |  |  |  |  |  |  | 
10 | CCC(O)CC [3-Pentanol] | 17.3 | 16 | 12.9 | 11.3 |  |  |  |  |  |  | 
11 | Cc1ccc(C(C)C)cc1 [4-Isopropyltoluene] | 7.72 | 18 | 5.76 | 12.6 |  |  |  |  |  |  | 
12 | CC1=CC[C@@H]2[C@@H]3[C@H]1[C@@]2(C)CCCC3(C)C [(+)-α-longipinene] |  |  |  |  | high binding affinities | 10.8 | 14.4 | 9.86 | 14.1 |  | 
13 | C=C1CC[C@@H]2C[C@H]1C2(C)C [(R)-(+)-β-pinene] |  |  |  |  | high binding affinities | 19.7 | 26.4 | 9.73 | 13.9 |  | 
14 | CC1=CC(=O)[C@H]2C[C@@H]1C2(C)C [(S)-(-)-verbenone] |  |  |  |  | high binding affinities | 16.1 | 21.5 | 9.27 | 13.2 |  | 
15 | C=C1CC[C@H]2O[C@]2(C)CC[C@@H]2[C@@H]1CC2(C)C [(–)-Caryophyllene oxide] | 10.3 | 19.6 | 7.67 | 13.7 |  |  |  |  |  |  | 
16 | CC/C=C\CCO [Cis-3-hexen-1-ol] | 29.8 | 21.4 | 22.3 | 15 |  |  |  |  |  |  | 
17 | CC/C=C\CCOC(C)=O [Cis-3-hexenyl acetate] | 24.6 | 21 | 18.4 | 14.8 |  |  |  |  |  |  | 
18 | CCCCCCCCCC=O [Decanal] | 31 | 20.4 | 23.2 | 14.3 |  |  |  |  |  |  | 
19 | CCCCCCCCCCCC=O [Dodecyl aldehyde] |  |  |  |  |  | 27.5 | 36.9 | 17.3 | 24.6 |  | 
20 | CCC/C=C/COC(C)=O [E-2-Hexen-1-ol acetate] | 62.8 | 14.6 | 46.9 | 10.2 |  |  |  |  |  |  | 

Row | SMILES | IC50 (IC50, pH 5.0) [µM] | IC50 (IC50, pH 7.4) [µM] | Ki (Ki, pH 5.0) [µM] | Ki (Ki, pH 7.4) [µM] | binding affinity to MsepCSP8 in words | Ki (pH 5.0, read-out: Ki) [µM] | IC50 (pH 5.0, read-out: IC50) [µM] | Ki (pH 7.4, read-out: Ki) [µM] | IC50 (pH 7.4, read-out: IC50) [µM] | Kd (pH 5.0) [µM] | Kd (pH 7.4) [µM]
21 | CCCCCCCCCCCCCCCCCCCC [Eicosane] | 46.3 | 48 | 34.6 | 33.7 |  |  |  |  |  |  | 
22 | CCOC(C)=O [Ethyl acetate] | 29.2 | 67.3 | 21.8 | 47.2 |  |  |  |  |  |  | 
23 | CC12CCC(CC1)C(C)(C)O2 [Eucalyptol] | 88.1 | 25.2 | 65.7 | 17.7 |  |  |  |  |  |  | 
24 | CCCCCCCCCCCCCCCC [Hexadecane] | 10.3 | 14.8 | 7.65 | 10.4 |  |  |  |  |  |  | 
25 | CCCCCC [Hexane] | 26.3 | 9.69 | 19.6 | 6.8 | bound highly |  |  |  |  |  | 
26 | C=CC(C)(O)CCC=C(C)C (stereo not drawn) [Linalool] | 25 | 14.5 | 18.7 | 10.1 |  |  |  |  |  |  | 
27 | COC(=O)c1ccccc1 [Methyl benzoate] | 21.2 | 12.5 | 15.8 | 8.8 | bound highly |  |  |  |  |  | 
28 | C=CC(=C)CCC=C(C)C [Myrcene] | 17.4 | 16.6 | 13 | 11.6 |  |  |  |  |  |  | 
29 | CCCCCCCCCCCCCCCCCCC [Nonadecane] | 19.8 | 25.1 | 14.8 | 17.6 |  |  |  |  |  |  | 
30 | CCCCCCCCC=O [Nonanal] | 14.9 | 12.7 | 11.1 | 8.92 | high affinities |  |  |  |  |  | 
31 | C=CC(C)=CCC=C(C)C [Ocimene] |  |  |  |  |  | 11.6 | 15.6 | 11.7 | 16.7 |  | 
32 | CCCCCCCC [Octane] | 15.9 | 37 | 11.8 | 26 |  |  |  |  |  |  | 
33 | CCCCCCCCCCCCCCCCCCCCCCCCC [Pentacosane] | 11.2 | 24.4 | 8.36 | 17.1 |  |  |  |  |  |  | 
34 | C=C(C)[C@H]1CC=C(C)CC1 [R-(+)-Limonene] |  |  |  |  |  | 14.1 | 18.9 | 16.5 | 23.5 |  | 
35 | CCCCCCCCCCCCCC [Tetradecane] | 23.8 | 17.9 | 17.8 | 12.6 |  |  |  |  |  |  | 
36 | CCC/C=C/CO [Trans-2-hexen-1-ol] | 8.46 | 23.8 | 6.31 | 16.7 | bound strongly |  |  |  |  |  | 
37 | CCCCCCCCCCCCCCCCCCCCC [n-Heneicosane] | 36.5 | 9.59 | 27.2 | 6.73 | bound highly |  |  |  |  |  | 
38 | C/C1=C\CC/C(C)=C/CC(C)(C)/C=C/C1 [α-Humulene] |  |  |  |  |  | 17.2 | 23.1 | 13 | 18.5 |  | 
